Assay results from US20230129034A1, “TREATMENT OF DISEASE WITH ESTERS OF SELECTIVE RXR AGONISTS” (Io Therapeutics, Inc., priority 2017, published 2023).

Columns and labels:
[1] = molecular target: T1, RXRα (Homo sapiens, UniProt P19793); experiment: RXR homodimer transactivation assay (rCRBPII/RXRE-tk-Luc reporter, CV-1 cells); format: cell-based
T1 construct: an expression construct including a full length RXRα, RXRβ, or RXRy; expressed in transfected cells; host or cells: CV-1
T1 sequence (P19793 1-462): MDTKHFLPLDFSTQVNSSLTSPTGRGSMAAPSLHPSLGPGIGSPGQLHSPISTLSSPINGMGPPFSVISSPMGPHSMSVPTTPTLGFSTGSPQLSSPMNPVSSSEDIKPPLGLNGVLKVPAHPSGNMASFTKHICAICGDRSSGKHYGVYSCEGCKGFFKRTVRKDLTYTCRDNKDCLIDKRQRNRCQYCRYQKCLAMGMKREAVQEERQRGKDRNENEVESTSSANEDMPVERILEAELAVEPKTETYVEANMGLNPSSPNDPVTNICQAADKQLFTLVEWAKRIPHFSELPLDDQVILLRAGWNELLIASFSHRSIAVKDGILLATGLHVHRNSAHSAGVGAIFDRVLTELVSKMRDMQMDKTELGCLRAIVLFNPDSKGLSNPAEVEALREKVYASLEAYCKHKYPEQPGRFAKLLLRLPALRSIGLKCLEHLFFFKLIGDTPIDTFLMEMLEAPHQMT
Text: (§1) Data are mean values ± SE from five independent experiments.

[2] = molecular target: T2, RXRβ (Homo sapiens, UniProt P28702); experiment: as above; format: cell-based
T2 construct: an expression construct including a full length RXRα, RXRβ, or RXRy; expressed in transfected cells; host or cells: CV-1
T2 sequence (P28702 1-533): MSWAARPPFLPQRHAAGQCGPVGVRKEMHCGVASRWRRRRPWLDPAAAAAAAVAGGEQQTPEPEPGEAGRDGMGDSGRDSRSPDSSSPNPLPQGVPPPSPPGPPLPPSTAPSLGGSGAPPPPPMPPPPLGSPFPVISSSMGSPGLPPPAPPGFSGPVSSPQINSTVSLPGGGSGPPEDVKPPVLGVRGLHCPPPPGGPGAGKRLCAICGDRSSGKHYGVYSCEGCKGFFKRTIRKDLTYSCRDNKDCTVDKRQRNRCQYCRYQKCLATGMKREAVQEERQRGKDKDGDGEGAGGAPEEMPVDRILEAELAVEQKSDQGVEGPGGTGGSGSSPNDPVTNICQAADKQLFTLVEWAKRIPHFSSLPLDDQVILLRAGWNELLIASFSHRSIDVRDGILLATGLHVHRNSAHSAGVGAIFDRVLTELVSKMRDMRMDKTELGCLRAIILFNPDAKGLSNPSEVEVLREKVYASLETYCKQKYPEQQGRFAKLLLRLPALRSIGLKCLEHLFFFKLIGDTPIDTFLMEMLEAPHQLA
Text: as §1

[3] = molecular target: T3, RXRγ (Homo sapiens, UniProt P48443); experiment: as above; format: cell-based
T3 construct: an expression construct including a full length RXRα, RXRβ, or RXRy; expressed in transfected cells; host or cells: CV-1
T3 sequence (P48443 1-463): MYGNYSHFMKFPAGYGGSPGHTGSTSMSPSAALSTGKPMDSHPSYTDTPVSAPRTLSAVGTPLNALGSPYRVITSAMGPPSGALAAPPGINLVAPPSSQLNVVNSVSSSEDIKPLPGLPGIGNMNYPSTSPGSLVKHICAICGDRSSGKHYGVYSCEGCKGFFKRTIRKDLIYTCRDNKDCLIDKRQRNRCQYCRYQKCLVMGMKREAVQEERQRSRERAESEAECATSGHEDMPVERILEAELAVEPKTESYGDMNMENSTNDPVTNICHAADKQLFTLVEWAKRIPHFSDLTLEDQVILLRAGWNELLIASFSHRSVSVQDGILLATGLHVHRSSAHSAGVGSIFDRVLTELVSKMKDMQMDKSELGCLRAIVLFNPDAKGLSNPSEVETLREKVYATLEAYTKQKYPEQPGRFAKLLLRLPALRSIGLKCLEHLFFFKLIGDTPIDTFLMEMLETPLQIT
Text: as §1

[4] = molecular target: T4, RARα (Homo sapiens, UniProt P10276); experiment: RAR transactivation assay (ER-RAR fusion, ERE-tk-Luc reporter, CV-1 cells); format: cell-based
T4 construct: expressed in transfected cells; host or cells: CV-1
Text: as §1

[5] = molecular target: T5, Nurr1/RXR heterodimer (Homo sapiens, UniProt P19793); experiment: Nurr1/RXR transactivation assay, COS7 cells, 3xNBRE-tk-luc; format: cell-based; details: for activation of the Nurr1/RXR heterodimer: COS7 cells, 20 hr
T5 construct: full length Nurr-1 with or without full-length RXRα plasmid; expressed in transfected cells; host or cells: COS7
Text: For PPARy: CV-1 cells were transfected with 3x(rAOX/DR1)-tk-Luc reporter gene and an expression vector for PPARy. For FXR:CV-1 cells were transfected with 3x(IBABP/IRI)-tk-Luc reporter gene and vectors for FXR and RXRα. For LXR:CV-1 cells were transfected with 3x(PLTP/LXRE)-tk-Luc reporter gene with vectors for LXRα or LXRβ. For Nurr1: COS7 cells were transfected with 3xNBRE-tk-luc reporter gene and full length Nurr-1 with or without full-length RXRα plasmid. […] Luciferase data were normalized to co-transfected β-gal activity. Luciferase activity was expressed as percent of maximal activity obtained using specific agonists. Rosiglitazone (PPARy), GW4064 (FXR), T0901317 (LXR).

[6] = tested on: EAE in B6 mice; experiment: EAE dose titration experiment in B6 mice with spleen and CNS cell analysis; format: in vivo; details: for EAE disease overall, dose titration: 50 µg, 100 µg or 200 µg every day from day 8
Protocol: A dose titration experiment was also conducted in EAE mice. EAE was induced in 28 B6 mice with MOG/CFA and PT as above. Mice were scored on day 7 as indicated above and divided into groups by score so means are as equal as possible.
At the completion of the experiment, the vehicle control and 200 µg/day groups were euthanized and spleen and CNS samples obtained.

[7] = tested on: demyelinated caudal cerebellar peduncles of one year old rats; experiment: Focal toxin (ethidium bromide) induced rat model of demyelination; format: in vivo
Protocol: The experiment uses rats of relatively advanced age (1 year) since such rats undergo remyelination in a less efficient manner, thereby providing data that are more relevant to the clinical treatment of human patients with multiple sclerosis or other demyelination disorders.
Focal demyelination is induced in one year old rats (approximately 300 g in weight) by injecting stereotactically 5 µl of ethidium bromide solution (0.01% vol/vol in saline) in a bilateral manner into the caudal cerebellar peduncles (CCP). […] The rats are killed on day 24 post-ethidium bromide treatment for analysis of remyelination by quantitative polymerase chain reaction (qPCR) and microscopy.

[8] = CV-1 cells, 20 hours, luciferase activity
[9] = 200 µg/day, restimulation with PMA/Ionomycin
[10] = 10 mg/kg/day oral gavage, day 7 to day 21

T5 sequence (P43354 whole entry partner, one chain of several): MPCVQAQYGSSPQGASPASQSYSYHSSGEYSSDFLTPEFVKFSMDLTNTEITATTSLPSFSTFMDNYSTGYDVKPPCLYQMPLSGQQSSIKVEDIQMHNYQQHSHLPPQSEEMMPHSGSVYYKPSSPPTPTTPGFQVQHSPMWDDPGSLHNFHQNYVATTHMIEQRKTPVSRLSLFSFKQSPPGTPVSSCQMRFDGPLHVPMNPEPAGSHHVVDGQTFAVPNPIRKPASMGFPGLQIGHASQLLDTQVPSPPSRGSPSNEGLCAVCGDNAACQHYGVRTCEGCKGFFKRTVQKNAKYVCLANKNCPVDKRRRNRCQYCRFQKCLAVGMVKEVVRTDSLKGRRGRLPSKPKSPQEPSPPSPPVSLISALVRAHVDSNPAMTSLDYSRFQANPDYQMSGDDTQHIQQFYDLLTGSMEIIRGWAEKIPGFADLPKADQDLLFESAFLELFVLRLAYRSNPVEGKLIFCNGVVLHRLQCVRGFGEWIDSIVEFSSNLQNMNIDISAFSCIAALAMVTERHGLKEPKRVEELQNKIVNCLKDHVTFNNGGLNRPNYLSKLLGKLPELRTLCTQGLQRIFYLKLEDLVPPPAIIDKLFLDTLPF
T4 sequence (P10276 183-417 limits assumed, species assumed): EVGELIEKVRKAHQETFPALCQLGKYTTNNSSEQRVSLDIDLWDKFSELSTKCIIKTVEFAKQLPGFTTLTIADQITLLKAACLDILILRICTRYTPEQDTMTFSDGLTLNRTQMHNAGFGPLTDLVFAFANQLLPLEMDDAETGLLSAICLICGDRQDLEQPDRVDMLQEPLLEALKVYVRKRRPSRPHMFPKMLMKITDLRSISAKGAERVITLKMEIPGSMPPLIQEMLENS

CC(/C=C/[C@@H]1C[C@]1(C)c1ccc2c(c1)C(C)(C)CCC2(C)C)=C\C(=O)O [IRX4204, 3,7-dimethyl-6(S),7(S)-methano,7-[1,1,4,4-tetramethyl-1,2,3,4-tetrahydronaphth-7-yl]2(E),4(E) heptadienoic acid]
EC90 ([1]; CV-1): ~0.1 nM
Efficacy (% of 1 µM IRX4204) RXRα [1, 8]: 100 % of 1 µM IRX4204
EC90 ([2]; CV-1, read-out: EC90 with RXRβ): ~1 nM
Efficacy (% of 1 µM IRX4204) RXRγ [3]: 0.09 ±0.01 100 % of 1 µM IRX4204
EC90 ([3]; CV-1, read-out: EC90 with RXRγ): ~0.1 nM
EC10 with RARα [4]: about 300 nM
concentration at which transactivation of the Nurr1/RXR heterodimer is apparent [5]: 100 pM
concentration sufficient to achieve full activation of Nurr1/RXR [5]: 1 nM
activation of the Nurr1/RXR heterodimer [5]: selectively activates
EAE disease overall, dose titration [6]: significantly less disease overall
CCR6 expression on CD4 T cells, spleen ([6]; 200 µg/day): lowered
co-expression of IFNg and IL-17A by CD4 T cells in CNS ([6]; 200 µg/day): not significantly different between groups
frequency of CD4+ CD25hi cells, spleen ([6]; 200 µg/day): not altered
number of CD4+ CD25hi cells, spleen ([6]; 200 µg/day): reduced
total number of effector and memory CD4 T cells (CD44), spleen ([6]; 200 µg/day): decreased
total number of infiltrating CD4 T cells in the CNS ([6]; 200 µg/day): reduced
total number of recently activated CD4 T cells (CD69 and CD44), spleen ([6]; 200 µg/day): also decreased
IFNγ production by CNS infiltrating lymphocytes [6, 9]: significantly reduced
TNF production by CNS infiltrating lymphocytes [6, 9]: significantly reduced
Mbp expression (real-time qPCR of lesion samples) [7, 10]: increase in Mbp expression
Nkx2.2+ oligodendrocyte precursor cells (OPCs) in lesions [7, 10]: increased
Pdgfra expression (real-time qPCR of lesion samples) [7, 10]: increase in Pdgfra expression
density of CC1+ differentiated oligodendrocytes in lesions [7, 10]: increased
density of Olig2+ oligodendrocyte lineage cells in lesions [7, 10]: increased
remyelinated axons (ultrastructural analysis of CCP lesions) [7, 10]: more remyelinated axons

CCOC(=O)/C=C(C)/C=C/[C@@H]1C[C@]1(C)c1ccc2c(c1)C(C)(C)CCC2(C)C [IRX4204EE, 3,7-dimethyl-6(S),7(S)-methano,7-[1,1,4,4-tetramethyl-1,2,3,4-tetrahydronaphth-7-yl]2(E),4(E) heptadienoic ethyl ester]
EC50 [1, 8]: > 1000 nM
EC50 [2, 8]: > 1000 nM
EC50 [3, 8]: > 1000 nM
EC50 [4, 8]: > 1000 nM
activation of the Nurr1/RXR heterodimer [5]: very little activity
EAE disease overall, dose titration [6]: more active than IRX4204 at each of the doses tested
activity in focal toxin rat model relative to IRX4204 (same end-points) ([7]; rat, in vivo): somewhat more active than the free acid
